Experimental findings from ChEMBL document CHEMBL3632464, “The quorum-sensing inhibiting effects of stilbenoids and their potential structure-activity relationship” (2015) are described below.

Converted amounts (≈) assume the structure as drawn. The source made the active and inactive calls. No cut-off for these calls is given here.

The inhibition is how much of the control response was suppressed. One may read the MIC as the lowest concentration that inhibits growth of the organism. Higher therefore signals a less susceptible organism.

For assay [1], the system named is Chromobacterium violaceum. The assay is described as follows: Inhibition of Quorum sensing system in Chromobacterium violaceum CV026 after 24 hrs by agar-well diffusion method.
The test system of assay [2] is Pseudomonas aeruginosa PAO1. Briefly: Inhibition of Quorum sensing system in Pseudomonas aeruginosa PAO1 assessed as inhibition of swarming motility at 100 uM after 16 hrs.
In assay [3] the test system is Pseudomonas aeruginosa. Briefly: Decrease in lasR gene expression in Pseudomonas aeruginosa PAO1 at 400 uM by RT-PCR analysis. Type of assay: functional, organism-based.
The test system of assay [4] is Chromobacterium violaceum. The assay is described as follows: Antibacterial activity in Chromobacterium violaceum CV026 for 16 hrs. Type of assay: functional. Conditions: CV026, 16 h.
Assay [5] deals with Chromobacterium violaceum. The assay is described as follows: Inhibition of Quorum sensing system in Chromobacterium violaceum CV026 at 1 to 4 mg/ml after 24 hrs by agar-well diffusion method. On the technique in general: In agar diffusion tests the substance spreads into inoculated agar from a disc or well.
Assay [6] concerns Pseudomonas aeruginosa. The assay is described as follows: Antibacterial activity in Pseudomonas aeruginosa PAO1 for 16 hrs. Type of assay: functional. The conditions noted are these: PAO1, 16 h.
In assay [7] the test system is Pseudomonas aeruginosa. The assay is described as follows: Decrease in rhIR gene expression in Pseudomonas aeruginosa PAO1 at 400 uM by RT-PCR analysis. Type of assay: functional, organism-based.
Assay [8] has as its system Pseudomonas aeruginosa. The assay is described as follows: Decrease in rhII gene expression in Pseudomonas aeruginosa PAO1 at 400 uM by RT-PCR analysis. Type of assay: functional, organism-based.
In assay [9] the test system is Pseudomonas aeruginosa PAO1. Briefly: Inhibition of Quorum sensing system in Pseudomonas aeruginosa PAO1 assessed as inhibition of pyocyanin production at sub-MIC concentration after 16 to 18 hrs by spectrophotometric assay.
For assay [10], the system named is Pseudomonas aeruginosa PAO1. Briefly: Inhibition of Quorum sensing system in Pseudomonas aeruginosa PAO1 assessed as inhibition of pyocyanin production at 400 uM after 16 to 18 hrs by spectrophotometric assay.
The test system of assay [11] is Chromobacterium violaceum. The assay is described as follows: Inhibition of Quorum sensing system in Chromobacterium violaceum CV026 assessed as inhibition of violacein synthesis at 25 to 150 uM after 18 hrs by spectrophotometric assay.
Assay [12] concerns Chromobacterium violaceum. Briefly: Inhibition of Quorum sensing system in Chromobacterium violaceum CV026 assessed as inhibition of violacein synthesis at 150 uM after 18 hrs by spectrophotometric assay.
Assay [13] has as its system Pseudomonas aeruginosa. Briefly: Decrease in lasI gene expression in Pseudomonas aeruginosa PAO1 at 400 uM by RT-PCR analysis relative to control. Type of assay: functional.
The test system of assay [14] is Pseudomonas aeruginosa. The assay is described as follows: Antibacterial activity in Pseudomonas aeruginosa PAO1 at 400 uM measured every 2 hrs for 24 hrs by microplate reader analysis. It counts as functional, organism-based.
Assay [15] relates to Chromobacterium violaceum. Briefly: Inhibition of Quorum sensing system in Chromobacterium violaceum CV026 assessed as inhibition of violacein synthesis at 125 uM after 18 hrs by spectrophotometric assay.
In assay [16] the test system is Chromobacterium violaceum. Briefly: Antibacterial activity in Chromobacterium violaceum CV026 at 100 ug/well by agar-well diffusion method. It counts as functional, organism-based.
Assay [17] concerns Chromobacterium violaceum. The assay is described as follows: Inhibition of Quorum sensing system in Chromobacterium violaceum CV026 assessed as violacein synthesis at 25 and 50 uM after 18 hrs by spectrophotometric assay.
For assay [18], the system named is Chromobacterium violaceum. Briefly: Inhibition of Quorum sensing system in Chromobacterium violaceum CV026 assessed as inhibition of violacein synthesis at 75 uM after 18 hrs by spectrophotometric assay.
Assay [19] relates to Chromobacterium violaceum. The assay is described as follows: Antibacterial activity in Chromobacterium violaceum CV026 at >50 ug/well by agar-well diffusion method. Type of assay: functional, organism-based.
In assay [20] the test system is Chromobacterium violaceum. The assay is described as follows: Inhibition of Quorum sensing system in Chromobacterium violaceum CV026 assessed as inhibition of violacein synthesis at >100 uM after 18 hrs by spectrophotometric assay.
For assay [21], the system named is Chromobacterium violaceum. The assay is described as follows: Inhibition of Quorum sensing system in Chromobacterium violaceum assessed as inhibition of violacein synthesis. The conditions noted are these: concentration not given here.
In assay [22] the test system is Chromobacterium violaceum. The assay is described as follows: Antibacterial activity in Chromobacterium violaceum CV026 at 0.6 mg/ml by agar-well diffusion method. It counts as functional, organism-based.

`COc1c(O)cc2ccc3c(OC)c(O)ccc3c2c1OC`: the inhibition result in [1] was “inactive”.

As to `COc1cc(/C=C/c2ccc(O)cc2)cc(OC)c1`, the inhibition result in assay [1] was “inactive”.

For the compound `COc1cc2ccc3c(OC)c(O)ccc3c2c(OC)c1OC`, the inhibition entry in [1] is “inactive”.

With `COc1ccc(CCc2cc(O)cc(O)c2)cc1OC`, in assay [1], the inhibition result is “inactive”.

For `COc1ccc(CCc2cc(OC)c(O)c(OC)c2)cc1O`, the inhibition entry in assay [1] is “inactive”.

Turning to `COc1ccc(CCc2cc(OC)c(OC)c(OC)c2)cc1O`, in assay [1], the inhibition entry was “inactive”.

For `COc1ccc(CCc2cc(OC)c(OC)c(OC)c2)cc1OC`, the inhibition entry in assay [1] is “inactive”.

For `Oc1cc(O)cc(/C=C/c2ccc(O)cc2O)c1` [OXYRESVERATROL], the inhibition result (in [2]; in the assay with Pseudomonas aeruginosa [3]; in [5]; with Pseudomonas aeruginosa [7]; in the assay on Pseudomonas aeruginosa [8]; in assay [9]) was “Active” throughout. Moreover, the inhibition result in [11] is “Active”. For the same compound, the MIC in assay [4] is 250 mg/L (≈ 1020 µM); against Pseudomonas aeruginosa [6], greater than 1000 mg/L. Besides, the results for the inhibition in assay [10] and in assay [12] were 50.2% and 86%, respectively. For the same compound, in the assay on Pseudomonas aeruginosa [13], the “fold change (FC)” value is recorded as 3. The outcome in the assay on Pseudomonas aeruginosa [14] was inactive.

Consider `Oc1cc(O)cc(/C=C/c2ccc(O)c(O)c2)c1` [PICEATANNOL], for which the inhibition result (in assay [2]; in the assay with Pseudomonas aeruginosa [3]; in assay [5]; in the assay on Pseudomonas aeruginosa [7]; in the assay on Pseudomonas aeruginosa [8]; in [9]) was “Active” throughout. Also, in assay [18], the inhibition result is “Active”. Besides, the MIC is 250 mg/L (≈ 1020 µM) in assay [4] and greater than 1000 mg/L in the assay on Pseudomonas aeruginosa [6]. Also, the inhibition in assay [15] was 46%; in [10], 37.1%; in [12], 73%. The result in [16] was Active. In assay [17], the inhibition result is “inactive”. Further, the “fold change (FC)” value in the assay on Pseudomonas aeruginosa [13] is 5. Moreover, in the assay with Pseudomonas aeruginosa [14], the outcome was inactive.

As for `Oc1ccc(/C=C/c2cc(O)cc(O)c2)cc1` [RESVERATROL], the outcome in assay [19] was Active. The inhibition result (in assay [2]; in the assay with Pseudomonas aeruginosa [3]; in assay [5]; in the assay on Pseudomonas aeruginosa [7]; with Pseudomonas aeruginosa [8]; in [9]) was “Active” each time. Further, in assay [11], the inhibition entry is “Active”. The MIC was 150 mg/L (≈ 657 µM) in assay [4] and greater than 1000 mg/L against Pseudomonas aeruginosa [6]. Also, the inhibition in assay [20] was greater than 80%; in [10] it was 59.3%; in assay [21], 70%. The “fold change (FC)” value in the assay on Pseudomonas aeruginosa [13] came to 2. For the same compound, in the assay on Pseudomonas aeruginosa [14], the result was inactive.

For the compound GENTAMICIN, the outcome in [22] was Active.
